Measured values: ChEMBL document CHEMBL4229480, “Terpenoids with vasorelaxant effects from the Chinese liverwort Scapania carinthiaca” (Bioorg Med Chem, 2018)
Structures can show the parent of a compound that is named as a salt. Activity calls are given as the source filed them. The calls are words filed in the database; no cut-off is given here.

What was measured:
[1] = tested on: A549; test: Cytotoxicity against human A549 cells after 24 hrs by MTT assay; format: functional, cell-based; conditions: A549, 24 h
[2] = tested on: PC-3; test: Cytotoxicity against human PC3 cells after 24 hrs by MTT assay; format: functional, cell-based; conditions: PC-3, 24 h
[3] = tested on: MCF7; test: Cytotoxicity against human MCF7 cells after 24 hrs by MTT assay; format: functional, cell-based; conditions: MCF7, 24 h
[4] = target: Voltage-gated L-type calcium channel (Rattus norvegicus, UniProt P22002+Q02485+P27732); test: Inhibition of voltage-dependent L-type calcium channel in Wistar rat 3rd-order mesenteric artery assessed as reduction in norepinephrine-induced vessel contraction by myographic method; conditions: for inhibition (INH): rat
[5] = species: Mus musculus; test: Vasorelaxant activity in mouse MOVAS1 cells assessed as reduction in KCl-induced increase in intracellular calcium level at 0.1 to 0.5 uM pretreated for 10 mins followed by KCl addition by Fluo-3/AM dye based laser scanning microscopic method; format: functional, cell-based
[6] = tested on: Artery; test: Vasorelaxant activity in Wistar rat endothelium-denuded 3rd-order mesenteric artery assessed as reduction in norepinephrine-induced vessel contraction by myographic method; format: functional, tissue-based
[7] = target: T1, L-type calcium channel (Mus musculus, UniProt Q01815+Q02789+Q99246+Q9JIS7); test: Inhibition of voltage-dependent L-type calcium channel in mouse MOVAS cells assessed as reduction in KCl/extracellular Ca2+-induced increase in intracellular calcium level pretreated for 10 mins followed by KCl addition by Fluo-3/AM dye based flow cytometry; format: cell-based
[8] = target: T1, L-type calcium channel; test: Inhibition of voltage-dependent L-type calcium channel in mouse MOVAS cells assessed as reduction in KCl/extracellular Ca2+-induced increase in intracellular calcium level at 0.1 to 0.5 uM pretreated for 10 mins followed by KCl addition by Fluo-3/AM dye based laser scanning microscopic method; format: cell-based
[9] = species: Mus musculus; test: Vasorelaxant activity in mouse MOVAS1 cells assessed as reduction in KCl-induced increase in intracellular calcium level at 0.1 to 0.5 uM pretreated for 10 mins followed by KCl addition by Fluo-3/AM dye based flow cytometry; format: functional, cell-based

EC50 [4] [µM]	inhibition (INH) [4]	EC50 ([6]; Rattus norvegicus, Wistar, Artery) [µM]	inhibition (INH) [7]	inhibition (INH) [8]	SMILES	IC50 [1] [µM]	IC50 [2] [µM]	IC50 [3] [µM]	Activity [5]	%max [6] [%]	Activity [9]
–	–	–	–	–	CCOC1C=C(CC[C@]2(C)[C@@H](C)CC[C@@]3(C)C(C(=O)O)=CCC[C@@H]23)C(=O)O1 (stereo partly specified)	> 40	> 40	> 40	–	–	–
–	–	–	–	–	C=C1C(=O)O[C@H]2C[C@]3(C)CC[C@H](O)C(C)=C3C[C@@H]12	> 40	> 40	> 40	–	–	–
–	–	–	–	–	C=C(C)[C@H]1C[C@H]2C(=C)CCC[C@]2(C)C[C@@H]1O	> 40	> 40	> 40	–	–	–
–	–	–	–	–	CC(C)=CC(=O)C[C@@]1(C)[C@@H]2[C@H]3[C@@H](C)CC[C@]3(O)[C@@H](C)CC[C@@H]21	20.8	13.1	15.1	–	–	–
4.1	Dose-dependent effect	–	–	–	C=C1CC[C@H](C)[C@@](C)(CCC2=CC(O)OC2=O)C/C=C\C=C/1C(=O)O (stereo partly specified)	> 40	> 40	> 40	–	–	–
14	Dose-dependent effect	–	–	–	CCOC1C=C(CC[C@]2(C)[C@@H](C)CC[C@@]3(C)C(C(=O)O)=CC=C[C@@H]23)C(=O)O1 (stereo partly specified)	> 40	> 40	> 40	–	–	–
–	–	–	–	–	CC1(C)[C@@H]2[C@@H]3[C@H](CC[C@@]3(C)O)C(=O)CC[C@@H]21	> 40	> 40	> 40	–	–	–
–	–	–	–	–	COc1cccc2c1C(=O)c1c(O)c3c(c(O)c1C2=O)C[C@@](O)(C(=O)CO)C[C@@H]3O[C@H]1C[C@H](N)[C@H](O)[C@H](C)O1 [DOXORUBICIN HYDROCHLORIDE]	0.1	0.8	0.4	–	–	–
12	Dose-dependent effect	37	Dose-dependent effect	Active	C=C1CC[C@H](C)[C@@](C)(CCC2=CC(OCC)OC2=O)C/C=C\C=C/1C(=O)O (stereo partly specified)	> 40	> 40	> 40	inactive	20	inactive
–	–	–	–	–	C=C1C(=O)[C@@]23C[C@@H]1CC[C@@H]2[C@@]1(C)CCCC(C)(C)[C@@H]1COC3=O	2.3	11.5	6.6	–	–	–
–	–	–	–	–	CC1(C)[C@@H]2[C@@H]3[C@H](CC[C@@]3(C)O)[C@@](C)(O)CC[C@@H]21	> 40	> 40	> 40	–	–	–
14	Dose-dependent effect	–	–	–	C=C1CC[C@H](C)[C@@](C)(CCC2=CCOC2=O)C/C=C\C=C/1C(=O)O	> 40	> 40	> 40	–	–	–
22	Dose-dependent effect	–	–	–	C=C1CC[C@H](C)[C@@](C)(CCC2=CC(OC)OC2=O)C/C=C\C=C/1C(=O)O (stereo partly specified)	> 40	> 40	> 40	–	–	–
–	–	–	–	–	CC1(C)[C@@H]2[C@H]3[C@H](CC[C@@]3(C)O)[C@](O)(CO)CC[C@@H]21	> 40	> 40	> 40	–	–	–
7.3	Dose-dependent effect	–	–	–	C[C@H]1CC[C@@]2(C)C(C(=O)O)=CCC[C@H]2[C@]1(C)CCC1=CCOC1=O	> 40	> 40	> 40	–	–	–
–	–	–	–	–	C=C1C(=O)O[C@H]2C[C@]3(C)CCC=C(C)[C@H]3C[C@@H]12	> 40	> 40	> 40	–	–	–
